Experimental data reported in US10851092B2, “Pyridine compound” (Daiichi Sankyo Company, Limited, priority 2016, dated 2020).
Read-outs that look alike come from different tables or passages of the source. One block for each compound: values may come before it.

Legend:
RET-wild type = RET-wild type (Homo sapiens (Human), UniProt P07949); assay: Evaluation of RET kinase inhibiting activity (cell system), Ba/F3 cells overexpressing Myc tagged RET; format: cell-based
Method: (§1) Thereafter, 1 mL of Cell Lysis Buffer (Cell signaling technology, #9803), a single tablet of Phosphatase inhibitor (Roche, #04906837001), and a single tablet of Protease inhibitor (Roche, #0469312400) were added to 9 mL of MilliQ, and 20 ul of the obtained mixture was then added to each well. The mixture thus obtained was placed on ice for 20 minutes, so that the cells were lysed. A 5-ul aliquot was taken from the cell lysate, and thereafter, 64 nl of Myc antibody (Cell signaling technology, #3946) and Streptavidin Donor beads in an equal amount of 102 nl of P-Tyr-100 Acceptor beads included in the Alpha Screen Phosphotyrosine (P-Tyr-100) assay kit (Perkin Elmer, #6760620C) were added to the aliquot in accordance with the instruction manual included with the aforementioned assay kit. The obtained mixture was reacted at room temperature overnight, and a RET kinase inhibiting activity rate was then measured using Envision.

[1] = target: RET-Gatekeeper mutation (V804L) recombinant protein (Homo sapiens (Human), UniProt P07949, V804L); assay: Evaluation of RET kinase inhibiting activity (cell-free system), gatekeeper mutant; format: biochemical
Method: (§2) 19 uL of the RET kinase solution was added to each of lines A to P of a 384-well plate, and thereafter, the test compound at each concentration was added to lines C to N, and further, 1 uL of dimethyl sulfoxide (hereinafter referred to as DMSO) was added to each of lines A, B, O and P. Thereafter, the obtained mixtures were each preincubated at room temperature for 20 minutes. Furthermore, a substrate solution A containing ATP (final concentration: 1 mM) and a substrate solution B containing no ATP, both in addition to a reaction buffer and FL-Peptide 22 (PerkinElmer, #760366, final concentration: 1.5 uM) were produced. The substrate solution A was added in an amount of 5 uL to lines B to 0, whereas the substrate solution B was added in an amount of 5 uL to lines A and P. The obtained mixtures were each incubated at 28° C. for 45 minutes. A reaction termination solution (100 mM HEPES (pH 7.4), 0.015% Briji-35, 40 mM EDTA, and 0.1% Coating Reagent 3) was added in an amount of 40 ul to the reaction mixture, so as to terminate the reaction.
(§3) Using EZ Reader II (Perkin Elmer), a substrate peptide was separated from a phosphorylated peptide in the reaction solution, and the product ratio (P/(P+S)) calculated from the peak (S) of the substrate peptide and the peak (P) of the phosphorylated peptide was used for evaluation. The inhibition of the test compound having each concentration was obtained by the following formula (automatically calculated using the software of EZ Reader II System). Inhibition (%)=100×(1−Ci/Co) (a) Ci: Conversion rate of a reaction of a test compound with substrate solution A−conversion rate of a reaction of DMSO with substrate solution B Co: Conversion rate of a reaction of DMSO with substrate solution A−conversion rate of a reaction of DMSO with substrate solution B
(§4) Based on the inhibition rates of the test compound at 12 different concentrations according to the formula (a), a 4-parameter logistic regression curve was drawn. At this time, the 4-parameter logistic regression equation is expressed as follows. Inhibition (%)=Bottom+(Top−Bottom)/(1+(X/IC50)^^slope) (b) Top: Upward asymptote Slope: Slope parameter IC50: Value X of (Top+Bottom)/2 Bottom: Downward asymptote X: Concentration of test compound
(§5) First, any given initial values are inputted into Top, Slope, IC50, Bottom (Top=100, Slope=−1, IC50=approx. IC50, and Bottom=0), so that a regression curve was drawn. Subsequently, a least-squares method was executed to the sum of squares of a difference between the measured value and the estimated value obtained from formula (b) to calculate the coefficient of the 4-parameter logistic regression equation, so as to calculate IC50.

[2] = system: phosphorylated RET in Ba/F3-RET-V804M tumors; assay: One shot PKPD analysis, Ba/F3-RET-V804M tumors; format: in vivo, mice
[3] = target: RET recombinant protein (RET-wild type) (Homo sapiens (Human), UniProt P07949); assay: Evaluation of RET kinase inhibiting activity (cell-free system), mobility shift assay; format: biochemical
Method: as §2, §3, §4, §5

KDR kinase = KDR kinase (Homo sapiens (Human), UniProt P35968); assay: Evaluation of KDR kinase inhibiting activity (cell system), HUVEC, AlphaLISA; format: cell-based
Method: HUVEC cells were seeded on a plate at a cell density of 1500 cells per well, and then cultured overnight. The test compound (10 uM, 2.5 uM, 625 nM, 156 nM, […], 10 nM, 2.5 nM, or 0.6 nM) was added to each well, followed by culturing the obtained mixture for 2 hours. Thereafter, VEGF165 (Peprotech, #100-20) was added to the culture at a final concentration of 50 ng/ml, and the obtained mixture was then reacted at 37° C. for 5 minutes. Thereafter, the resulting cells were lysed with 50 ul of Lysis buffer included in AlphaLISA SureFire Ultra (Perkin Elmer, # ALSU-PVGFR-A500), and Acceptor beads and Donor beads were then added to 10 ul of the cell lysate according to the instruction manual included with the aforementioned kit. The mixture thus obtained was reacted at room temperature overnight, and thereafter, a KDR kinase inhibiting activity rate was measured using Envision (Perkin Elmer).
The value for a well to which only the Lysis buffer had been added was subtracted as a background from all of the values. Thereafter, the value for a well to which […] had been added and the test compound had not been added was defined as a KDR kinase activity of 100%, and the obtained value was corrected.

[4] = system: thyroid gland cancer cell line TT having RET activating mutation (C634W); assay: Cell growth inhibitory activity, thyroid gland cancer cell line TT; format: cell-based; details: Homo sapiens, 216 h; TT cells, 9 days, CellTiter-Glo
Method: The cell growth inhibitory activity of the test compound on the thyroid gland cancer cell line TT having RET activating mutation (C634W) (Biochemical and Biophysical Research Communications. 1995 Feb. 27 (207), 1022-1028) was measured.
TT cells were seeded on a 96-well plate at a cell density of 5,000 cells per well, and were then cultured at 37° C. in the presence of 5% CO2 overnight in an F-12K nutrient mixture medium containing 10% FBS. Thereafter, the compound was diluted, and then added to the 96-well plate. As a negative control, dimethyl sulfoxide (hereinafter referred to as DMSO) was added. The obtained mixture was cultured at 37° C. in the presence of 5% CO2 for 9 days, and thereafter, a cell count measuring reagent CellTiter-Glo® Luminescent Cell Viability Assay was added to the culture, followed by stirring the mixture. Thereafter, using a luminescence measurement device Envision (Perkin Elmer), the luminescence intensity was measured. The measurement value of a well to which only the medium had been added was define as a survival rate of 0%, and the measurement value of a well to which DMSO had been added was defined as a survival rate of 100%. The survival rate of the TT cells in the presence of each concentration of the test compound was calculated.

[5] = system: non-small cell lung cancer cell line LC-2/ad having a CCDC6-RET fusion gene; assay: Cell growth inhibitory activity, non-small cell lung cancer cell line LC-2/ad; format: cell-based; details: Homo sapiens, 216 h; LC-2/ad cells, 9 days, CellTiter-Glo
Method: The cell growth inhibitory activity of the test compound on the non-small cell lung cancer cell line LC-2/ad having a CCDC6-RET fusion gene (RIKEN, J Thorac Oncol. 2012 December, 7(12), 1872-6) was measured.
LC-2/ad cells were seeded on a 96-well plate at a cell density of 5,000 cells per well, and then cultured at 37° C. in the presence of 5% CO2 overnight in a medium prepared by mixing RPMI-1640 containing 15% FBS and 25 mM HEPES with Ham's F12 Mixture at a mixing ratio of 1:1. Thereafter, the test compound was diluted, and then added to the 96-well plate. As a negative control, dimethyl sulfoxide (hereinafter referred to as DMSO) was added. The obtained mixture was cultured at 37° C. in the presence of 5% CO2 for 9 days, and thereafter, a cell count measuring reagent CellTiter-Glo® Luminescent Cell Viability Assay (Promega, # G7571) was added to the culture, followed by stirring the mixture. Thereafter, using a luminescence measurement device Envision, the luminescence intensity was measured. The measurement value of a well to which only the medium had been added was define as a survival rate of 0%, and the measurement value of a well to which DMSO had been added was defined as a survival rate of 100%. The survival rate of the LC-2/ad cells in the presence of each concentration of the test compound was calculated.

RET-V804L = RET-V804L (Homo sapiens (Human), UniProt P07949, V804L); assay: Evaluation of RET kinase inhibiting activity (cell system), Ba/F3 cells overexpressing RET (V804L) mutant; format: cell-based; details: Ba/F3, compound 2 hours
Method: as §1

[6] = comparator compounds, Form: Free, read-out: IC50 (nM) RET
[7] = cell system, comparator compounds, Form: Free, read-out: IC50 (nM) KDR
[8] = cell system, Form: Mesylate, read-out: IC50 (nM) KDR

RET-wild type, sequence (P07949 29-1114): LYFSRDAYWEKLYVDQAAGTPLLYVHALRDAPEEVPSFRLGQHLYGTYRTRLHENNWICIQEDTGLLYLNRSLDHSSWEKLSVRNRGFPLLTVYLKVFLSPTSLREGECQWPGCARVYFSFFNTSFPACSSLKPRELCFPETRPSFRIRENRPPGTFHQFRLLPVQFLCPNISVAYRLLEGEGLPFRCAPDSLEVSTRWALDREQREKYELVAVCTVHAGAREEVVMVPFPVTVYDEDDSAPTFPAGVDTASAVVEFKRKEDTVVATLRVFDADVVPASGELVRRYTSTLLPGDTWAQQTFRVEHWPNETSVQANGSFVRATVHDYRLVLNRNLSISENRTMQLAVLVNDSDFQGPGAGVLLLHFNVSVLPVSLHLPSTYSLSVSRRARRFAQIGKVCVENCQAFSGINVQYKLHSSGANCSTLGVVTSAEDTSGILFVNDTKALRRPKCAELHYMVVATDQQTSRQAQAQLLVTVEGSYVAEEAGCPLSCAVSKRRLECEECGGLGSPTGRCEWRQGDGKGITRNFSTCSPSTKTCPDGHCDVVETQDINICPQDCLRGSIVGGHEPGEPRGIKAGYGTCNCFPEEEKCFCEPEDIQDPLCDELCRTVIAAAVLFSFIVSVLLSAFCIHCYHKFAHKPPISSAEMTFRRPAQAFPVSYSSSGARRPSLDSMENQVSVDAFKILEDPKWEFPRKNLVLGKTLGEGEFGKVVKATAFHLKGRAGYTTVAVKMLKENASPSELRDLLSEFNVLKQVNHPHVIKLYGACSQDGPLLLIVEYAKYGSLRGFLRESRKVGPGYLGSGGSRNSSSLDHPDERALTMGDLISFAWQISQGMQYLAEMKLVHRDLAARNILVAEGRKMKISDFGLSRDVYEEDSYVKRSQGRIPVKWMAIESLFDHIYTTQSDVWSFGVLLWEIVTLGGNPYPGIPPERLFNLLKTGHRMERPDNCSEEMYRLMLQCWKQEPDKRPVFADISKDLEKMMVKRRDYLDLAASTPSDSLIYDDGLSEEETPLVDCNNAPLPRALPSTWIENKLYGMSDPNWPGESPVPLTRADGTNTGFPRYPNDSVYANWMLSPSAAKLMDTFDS
RET recombinant protein (RET-wild type), sequence (P07949 29-1114): as above
KDR kinase, sequence (P35968 20-1356): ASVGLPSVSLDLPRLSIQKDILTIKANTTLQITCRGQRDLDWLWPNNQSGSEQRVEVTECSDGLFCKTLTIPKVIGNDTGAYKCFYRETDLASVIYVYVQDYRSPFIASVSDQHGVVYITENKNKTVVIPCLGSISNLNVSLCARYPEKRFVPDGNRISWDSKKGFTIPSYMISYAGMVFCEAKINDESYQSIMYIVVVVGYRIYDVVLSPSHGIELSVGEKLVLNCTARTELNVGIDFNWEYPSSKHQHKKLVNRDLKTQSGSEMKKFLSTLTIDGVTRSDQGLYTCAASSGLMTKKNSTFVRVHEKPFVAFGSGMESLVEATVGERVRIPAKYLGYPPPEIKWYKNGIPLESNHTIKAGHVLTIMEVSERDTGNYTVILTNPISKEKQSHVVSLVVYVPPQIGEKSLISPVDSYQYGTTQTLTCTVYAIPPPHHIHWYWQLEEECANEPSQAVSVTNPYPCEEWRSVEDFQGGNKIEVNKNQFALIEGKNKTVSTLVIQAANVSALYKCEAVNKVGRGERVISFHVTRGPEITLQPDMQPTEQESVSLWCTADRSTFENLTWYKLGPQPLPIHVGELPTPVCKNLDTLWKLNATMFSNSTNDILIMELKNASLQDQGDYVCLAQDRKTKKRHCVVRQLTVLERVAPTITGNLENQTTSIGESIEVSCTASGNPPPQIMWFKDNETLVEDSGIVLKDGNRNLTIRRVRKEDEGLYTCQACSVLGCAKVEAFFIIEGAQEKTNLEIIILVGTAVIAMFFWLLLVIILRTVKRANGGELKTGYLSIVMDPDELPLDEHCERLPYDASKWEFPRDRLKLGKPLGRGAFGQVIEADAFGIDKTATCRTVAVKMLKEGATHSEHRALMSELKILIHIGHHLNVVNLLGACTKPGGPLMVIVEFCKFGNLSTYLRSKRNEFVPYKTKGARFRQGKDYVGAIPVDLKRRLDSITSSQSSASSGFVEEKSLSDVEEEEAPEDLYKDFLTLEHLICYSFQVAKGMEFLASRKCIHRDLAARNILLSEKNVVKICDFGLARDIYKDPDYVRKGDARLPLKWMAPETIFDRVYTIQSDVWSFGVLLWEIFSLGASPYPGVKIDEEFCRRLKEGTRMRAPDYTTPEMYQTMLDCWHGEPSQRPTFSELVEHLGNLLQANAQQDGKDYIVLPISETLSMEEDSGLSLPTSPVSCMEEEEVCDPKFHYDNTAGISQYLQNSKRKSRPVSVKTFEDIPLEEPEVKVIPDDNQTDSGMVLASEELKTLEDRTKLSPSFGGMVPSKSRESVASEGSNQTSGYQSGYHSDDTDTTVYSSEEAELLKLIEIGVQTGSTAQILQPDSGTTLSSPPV
RET-Gatekeeper mutation (V804L) recombinant protein, sequence (P07949 29-1114 V804L): as the sequence (P07949 29-1114) above, with V776L counted along it
RET-V804L, sequence (P07949 29-1114 V804L): as the sequence (P07949 29-1114) above, with V776L counted along it

IC50 (RET-wild type; Form: Free, read-out: IC50 (nM) RET): 18 nM
SMILES: COc1cc2cc(-c3ccc(CC(=O)Nc4cc(C(C)(C)C(F)(F)F)on4)cn3)cnc2cc1OC [Example 1, 2-[6-(6,7-Dimethoxyquinolin-3-yl)pyridin-3-yl]-N-[5-(1,1,1-trifluoro-2-methylpropan-2-yl)-1,2-oxazol-3-yl]acetamide]

IC50 ([1]; non-cell system, read-out: Biochemical assay (non-cell system) IC50 (nM) RET-V804L): 1.7 nM
exposure in tumors ([2]; Ba/F3-RET-V804M tumors, 10 mg/kg oral): poor exposure in tumors
inhibitory effect in vitro ([3]; in vitro): strong inhibitory effect
IC50 ([3]; non-cell system, read-out: Biochemical assay (non-cell system) IC50 (nM) RET-WT): 1.5 nM
SMILES: COc1cc2ncc(-c3cnc(CC(=O)Nc4cc(C(C)(C)C(F)(F)F)on4)c(F)c3)nc2cc1OC [Compound 229, reference compound]
suppression of phosphorylated RET (pRET) in Ba/F3-RET-V804M tumors ([2]; 10 mg/kg oral): did not suppress
Relative phosphorylation of RET (%) in Ba/F3-RET-V804M tumors ([2]; Dose: 10 mg/kg oral, six hours after administration, relative to vehicle): 98%

IC50 (RET-wild type; [6]): 7 nM
IC50 (KDR kinase; [7]): 9 nM
SMILES: COc1cc2ncc(-c3ccc(CC(=O)Nc4cc(C(C)(C)C(F)(F)F)on4)cc3)nc2cc1OC [Ex. 8, reference compound]

IC50 ([1]; cell-free system, ATP 1 mM, read-out: RET-V804L IC50): 2.7 nM
IC50 [4]: 17 nM
IC50 [5]: 82 nM
IC50 ([3]; cell-free system, ATP 1 mM, read-out: RET-wild type IC50): 2.2 nM
IC50 (RET-wild type; Ba/F3, compound 2 hours, read-out: RET-wild type IC50): 10 nM
IC50 (RET-V804L): 15 nM
SMILES: COc1cc2cc(-c3ccc(CC(=O)Nc4cc(C(C)(C)C(F)(F)F)n[nH]4)cn3)cnc2cc1OC [Example 5, 2-[6-(6,7-Dimethoxyquinolin-3-yl)pyridin-3-yl]-N-[3-(1,1,1-trifluoro-2-methylpropan-2-yl)-1H-pyrazol-5-yl]acetamide]

IC50 (KDR kinase; KDR, HUVEC cells, VEGF165 50 ng/ml, compound 2 hours, read-out: IC50): 566 nM
IC50 (KDR kinase; [8]): 566 nM
SMILES: COc1cc2cc(-c3ccc(CC(=O)Nc4cc(C(C)(C)C(F)(F)F)n[nH]4)cn3)cnc2cc1OC [Example 6, 2-[6-(6,7-Dimethoxyquinolin-3-yl)pyridin-3-yl]-N-[3-(1,1,1-trifluoro-2-methylpropan-2-yl)-1H-pyrazol-5-yl]acetamide Methanesulfonate]

IC50 [4]: 112 nM
IC50 [5]: 308 nM
SMILES: CCc1cc2c(cc1N1CCC(N3CCOCC3)CC1)C(C)(C)c1[nH]c3cc(C#N)ccc3c1C2=O [Alectinib, 9-Ethyl-6,6-dimethyl-8-[4-(morpholin-4-yl)piperidin-1-yl]-11-oxo-6,11-dihydro-5H-benzo[b]carbazole-3-carbonitrile, reference compound]

IC50 (KDR kinase; [8]): 828 nM
SMILES: COc1cc2cc(-c3ccc(CC(=O)Nc4cc(C(C)(C)C(F)(F)F)on4)cn3)cnc2cc1OC [Example 2, 2-[6-(6,7-Dimethoxyquinolin-3-yl)pyridin-3-yl]-N-[5-(1,1,1-trifluoro-2-methylpropan-2-yl)-1,2-oxazol-3-yl]acetamide Methanesulfonate]

IC50 (RET-wild type; [6]): 8 nM
IC50 (KDR kinase; cell system, comparator compounds, Form: Mesylate, read-out: IC50 (nM) KDR): 7 nM
SMILES: COc1cc2cc(-c3ccc(CC(=O)Nc4cc(C(C)(C)C(F)(F)F)no4)cc3)cnc2cc1OC [Ref Ex. 1, 2-[4-(6,7-Dimethoxyquinolin-3-yl)phenyl]-N-[3-(1,1,1-trifluoro-2-methylpropan-2-yl)-1,2-oxazol-5-yl]-acetamide, reference compound]

IC50 (RET-wild type; [6]): 5 nM
IC50 (KDR kinase; [7]): 16 nM
SMILES: COc1cc2cc(-c3ccc(CC(=O)Nc4cc(C(C)(C)C(F)(F)F)n[nH]4)cc3)cnc2cc1OC [Ref Ex. 2, 2-[4-(6,7-Dimethoxyquinolin-3-yl)phenyl]-N-[3-(1,1,1-trifluoro-2-methylpropan-2-yl)-1H-pyrazol-5-yl]-acetamide, reference compound]

IC50 (RET-wild type; [6]): 8 nM
IC50 (KDR kinase; [7]): 6 nM
SMILES: COc1cc2cc(-c3ccc(CC(=O)Nc4cc(C(C)(C)C(F)(F)F)no4)c(F)c3)cnc2cc1OC [Ref Ex. 3, 2-[4-(6,7-Dimethoxyquinolin-3-yl)-2-fluorophenyl]-N-[3-(1,1,1-trifluoro-2-methylpropan-2-yl)-1,2-oxazol-5-yl]acetamide, reference compound]
